{
  "source": "ChEMBL document CHEMBL3045514",
  "about": "“An efficient one-pot cyclization of quinoline thiosemicarbazones to quinolines derivatized with 1,3,4-thiadiazole as anticancer and anti-tubercular agents” (Med Chem Res, 2012)",
  "key": {"Mus musculus": {"species": "Mus musculus", "assay": "Toxicity in Mus musculus (mouse) assessed as irritation", "assay_type": "organism-based", "details": "in vivo"}, "[1]": {"system": "Mycobacterium tuberculosis", "assay": "Antitubercular activity against Mycobacterium tuberculosis H37Rv at 10 ug/ml measured twice a week for 3 weeks by Ziehl-Neelsen staining", "assay_type": "functional, organism-based"}, "[2]": {"system": "Mycobacterium tuberculosis", "assay": "Antitubercular activity against Mycobacterium tuberculosis H37Rv at 25 ug/ml measured twice a week for 3 weeks by Ziehl-Neelsen staining", "assay_type": "functional, organism-based"}, "[3]": {"system": "Mycobacterium tuberculosis", "assay": "Antitubercular activity against Mycobacterium tuberculosis H37Rv at 5 ug/ml measured twice a week for 3 weeks by Ziehl-Neelsen staining", "assay_type": "functional, organism-based"}, "HeLa": {"system": "HeLa", "assay": "Cytotoxicity against Homo sapiens (human) HeLa cells assessed as cell mortality after 24 to 72 hr by inverted microscopic analysis", "assay_type": "functional"}, "[4]": {"system": "Mycobacterium tuberculosis", "assay": "Antitubercular activity against Mycobacterium tuberculosis H37Rv measured twice a week for 3 weeks by Ziehl-Neelsen staining", "assay_type": "functional", "details": "504 h"}},
  "note": "Calls of active or inactive are those of the source. The rule behind the calls is not given here.",
  "data": [
    {"smiles": "COc1ccc2nc(Cl)c(C3SC(NC(C)=O)=NN3C(C)=O)cc2c1", "note": "(stereo not drawn)", "values": [
      {"measurement": "Activity", "setting": "Mus musculus", "result": "Non-toxic"},
      {"measurement": "Activity", "setting": "[1]", "result": "Active"},
      {"measurement": "Activity", "setting": "[2]", "result": "Active"},
      {"measurement": "Activity", "setting": "[3]", "result": "inactive"},
      {"measurement": "Activity", "setting": "HeLa", "result": 10, "unit": "µg/mL"}
    ]},
    {"smiles": "CC(=O)NC1=NN(C(C)=O)C(c2cc3cc(C)ccc3nc2Cl)S1", "note": "(stereo not drawn)", "values": [
      {"measurement": "Activity", "setting": "Mus musculus", "result": "Non-toxic"},
      {"measurement": "Activity", "setting": "[1]", "result": "Active"},
      {"measurement": "Activity", "setting": "[2]", "result": "Active"},
      {"measurement": "Activity", "setting": "[3]", "result": "inactive"},
      {"measurement": "Activity", "setting": "HeLa", "result": 10, "unit": "µg/mL"}
    ]},
    {"smiles": "COc1cccc2cc(C3SC(NC(C)=O)=NN3C(C)=O)c(Cl)nc12", "note": "(stereo not drawn)", "values": [
      {"measurement": "Activity", "setting": "Mus musculus", "result": "Non-toxic"},
      {"measurement": "Activity", "setting": "[1]", "result": "Active"},
      {"measurement": "Activity", "setting": "[2]", "result": "Active"},
      {"measurement": "Activity", "setting": "[3]", "result": "inactive"},
      {"measurement": "MIC", "setting": "[4]", "result": 5, "unit": "µg/mL"},
      {"measurement": "Activity", "setting": "HeLa", "result": 15, "unit": "µg/mL"}
    ]},
    {"smiles": "COc1cc2cc(C3SC(NC(C)=O)=NN3C(C)=O)c(Cl)nc2cc1OC", "note": "(stereo not drawn)", "values": [
      {"measurement": "Activity", "setting": "Mus musculus", "result": "Non-toxic"},
      {"measurement": "Activity", "setting": "[1]", "result": "Active"},
      {"measurement": "Activity", "setting": "[2]", "result": "Active"},
      {"measurement": "Activity", "setting": "[3]", "result": "inactive"},
      {"measurement": "Activity", "setting": "HeLa", "result": 10, "unit": "µg/mL"}
    ]},
    {"smiles": "CC(=O)NC1=NN(C(C)=O)C(c2cc3cc(Br)ccc3nc2Cl)S1", "note": "(stereo not drawn)", "values": [
      {"measurement": "Activity", "setting": "Mus musculus", "result": "Non-toxic"},
      {"measurement": "Activity", "setting": "[1]", "result": "Active"},
      {"measurement": "Activity", "setting": "[2]", "result": "Active"},
      {"measurement": "Activity", "setting": "[3]", "result": "inactive"},
      {"measurement": "Activity", "setting": "HeLa", "result": 20, "unit": "µg/mL"}
    ]},
    {"smiles": "CC(=O)NC1=NN(C(C)=O)C(c2cc3cccc(C)c3nc2Cl)S1", "note": "(stereo not drawn)", "values": [
      {"measurement": "Activity", "setting": "Mus musculus", "result": "Non-toxic"},
      {"measurement": "Activity", "setting": "[1]", "result": "Active"},
      {"measurement": "Activity", "setting": "[2]", "result": "Active"},
      {"measurement": "Activity", "setting": "[3]", "result": "inactive"},
      {"measurement": "MIC", "setting": "[4]", "result": 5, "unit": "µg/mL"},
      {"measurement": "Activity", "setting": "HeLa", "result": 25, "unit": "µg/mL"}
    ]},
    {"smiles": "CC(=O)NC1=NN(C(C)=O)C(c2cc3ccccc3nc2Cl)S1", "note": "(stereo not drawn)", "values": [
      {"measurement": "Activity", "setting": "Mus musculus", "result": "Non-toxic"},
      {"measurement": "Activity", "setting": "[1]", "result": "Active"},
      {"measurement": "Activity", "setting": "[2]", "result": "Active"},
      {"measurement": "Activity", "setting": "[3]", "result": "inactive"},
      {"measurement": "Activity", "setting": "HeLa", "result": 15, "unit": "µg/mL"}
    ]},
    {"smiles": "CC(=O)NC1=NN(C(C)=O)C(c2cc3ccc(Cl)cc3nc2Cl)S1", "note": "(stereo not drawn)", "values": [
      {"measurement": "Activity", "setting": "Mus musculus", "result": "Non-toxic"},
      {"measurement": "Activity", "setting": "[1]", "result": "Active"},
      {"measurement": "Activity", "setting": "[2]", "result": "Active"},
      {"measurement": "Activity", "setting": "[3]", "result": "inactive"},
      {"measurement": "Activity", "setting": "HeLa", "result": 20, "unit": "µg/mL"}
    ]},
    {"smiles": "COc1ccc2cc(C3SC(NC(C)=O)=NN3C(C)=O)c(Cl)nc2c1", "note": "(stereo not drawn)", "values": [
      {"measurement": "Activity", "setting": "Mus musculus", "result": "Non-toxic"},
      {"measurement": "Activity", "setting": "[1]", "result": "Active"},
      {"measurement": "Activity", "setting": "[2]", "result": "Active"},
      {"measurement": "Activity", "setting": "[3]", "result": "inactive"},
      {"measurement": "Activity", "setting": "HeLa", "result": 15, "unit": "µg/mL"}
    ]},
    {"smiles": "CC(=O)NC1=NN(C(C)=O)C(c2cc3ccc(C)cc3nc2Cl)S1", "note": "(stereo not drawn)", "values": [
      {"measurement": "Activity", "setting": "Mus musculus", "result": "Non-toxic"},
      {"measurement": "Activity", "setting": "[1]", "result": "Active"},
      {"measurement": "Activity", "setting": "[2]", "result": "Active"},
      {"measurement": "Activity", "setting": "[3]", "result": "inactive"},
      {"measurement": "Activity", "setting": "HeLa", "result": 20, "unit": "µg/mL"}
    ]},
    {"smiles": "CN[C@@H]1[C@H](O[C@H]2[C@H](O[C@H]3[C@H](O)[C@@H](O)[C@H](N=C(N)N)[C@@H](O)[C@@H]3N=C(N)N)O[C@@H](C)[C@]2(O)C=O)O[C@@H](CO)[C@H](O)[C@H]1O", "note": "[STREPTOMYCIN]", "values": [
      {"measurement": "MIC", "setting": "[4]", "result": 10, "unit": "µg/mL"}
    ]}
  ]
}
